Experimental data as given in patent US20260262643A1, “HERBICIDAL BENZOXAZINES” (FMC CORPORATION, priority 2022, published 2026).

What was measured:
Experiment in all cases: Test A preemergence
Details in all cases: 1000 g ai/ha, 0 to 100 scale (0 no effect, 100 complete control), 10 days
barnyardgrass = assay type: in vivo, Echinochloa crusgalli
Summary of the method: (§1)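 Plants were grown in loam and sand and treated preemergence or postemergence (one- to two-leaf stage, 2–10 cm) with compound in solvent plus surfactant. Response was scored against untreated controls after 10 greenhouse days, where 0 means no effect and 100 complete control.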

foxtail, giant = assay type: in vivo, Setaria faberi
Summary of the method: as §1

kochia = assay type: in vivo, Bassia scoparia
Summary of the method: as §1

Pigweed, Redroot = assay type: in vivo, Amaranthus retroflexus
Text: Seeds of plant species selected from barnyardgrass (Echinochloa crusgalli), blackgrass (Alopecurus myosuroides), corn (Zea mays), foxtail, giant (giant foxtail, Setaria faberi), goosegrass (Eleusine indica), kochia (Bassia scoparia), oat, wild (wild oat, Avena fatua), pigweed, palmer (palmer amaranth, palmer pigweed, Amaranthus palmeri), Pigweed, Redroot (redroot pigweed, Amaranthus retroflexus), ragweed (common ragweed, Ambrosia artemisiifolia), ryegrass, Italian (italian ryegrass, Lolium multiflorum), soybean (Glycine max), and wheat (Triticum aestivum) were planted into a blend of loam soil and sand and treated preemergence with a directed soil spray using test chemicals formulated in a non-phytotoxic solvent mixture which included a surfactant. At the same time, plants selected from these crops and weed species and also galium (catchweed bedstraw, Galium aparine) and horseweed (Erigeron canadensis) were planted in pots containing the same blend of loam soil and sand and treated with postemergence applications of test chemicals formulated in the same manner. Plants ranged in height from 2 to 10 cm and were in the one- to two-leaf stage for the postemergence treatment. Treated plants and untreated controls were maintained in a greenhouse for 10 days, after which time all treated plants were compared to untreated controls and visually evaluated for injury. Plant response ratings, summarized in Table A, are based on a 0 to 100 scale where 0 is no effect and 100 is complete control. A dash (-) response means no test result.

ragweed = assay type: in vivo, Ambrosia artemisiifolia
Summary of the method: as §1

ryegrass, Italian = assay type: in vivo, Lolium multiflorum
Summary of the method: as §1

Compound | Plant response rating, Barnyardgrass (barnyardgrass) | Plant response rating, Foxtail, Giant (foxtail, giant) | Plant response rating, Kochia (kochia) | Plant response rating, Pigweed, Redroot (Pigweed, Redroot) | Plant response rating, Ragweed (ragweed) | Plant response rating, Ryegrass, Italian (ryegrass, Italian)
CC1CN(C(=O)c2ccnc(-n3cncn3)c2)c2ccccc2O1 (stereo not drawn) [Compounds 8] | 0 | 90 | 50 | 10 | 0 | 40
CCC1CN(C(=O)c2ccnc(-n3cncn3)c2)c2ccc(Cl)cc2O1 (stereo not drawn) [Compound 16] | 0 | 0 | 20 | 20 | 0 | 0
